# Data from PubChem BioAssay (NCI).
#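 Cells were grown in 96-well plates and exposed to each compound for 48 hours at five concentrations; endpoints were interpolated linearly between bracketing concentrations, or set to the highest concentration if not reached. The concentration for full growth arrest is given as TGI.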
# Key:
# Assay in all cases: DTP human tumour cell line panel, 48 h
# SN12C renal = tested on: SN12C renal
# HOP-92 NSCLC = tested on: HOP-92 NSCLC
# OVCAR-3 ovarian = tested on: OVCAR-3 ovarian
# PC-3 prostate = tested on: PC-3 prostate
# A549 NSCLC = tested on: A549 NSCLC
# IGROV1 ovarian = tested on: IGROV1 ovarian
# SF-268 CNS = tested on: SF-268 CNS
# U251 CNS = tested on: U251 CNS
# MOLT-4 leukemia = tested on: MOLT-4 leukemia
# SNB-19 CNS = tested on: SNB-19 CNS
# LOX IMVI melanoma = tested on: LOX IMVI melanoma
# HCT-15 colon = tested on: HCT-15 colon
# NCI/ADR-RES ovarian = tested on: NCI/ADR-RES ovarian
# RXF 393 renal = tested on: RXF 393 renal
# MDA-N = tested on: MDA-N
# TK-10 renal = tested on: TK-10 renal
# NCI-H23 lung = tested on: NCI-H23 lung
# SR leukemia = tested on: SR leukemia
# OVCAR-4 ovarian = tested on: OVCAR-4 ovarian
# SF-295 CNS = tested on: SF-295 CNS
# UACC-257 melanoma = tested on: UACC-257 melanoma
# A498 renal = tested on: A498 renal
# UO-31 renal = tested on: UO-31 renal
# NCI-H522 lung = tested on: NCI-H522 lung
# NCI-H226 lung = tested on: NCI-H226 lung
# CCRF-CEM leukemia = tested on: CCRF-CEM leukemia
# SK-MEL-28 melanoma = tested on: SK-MEL-28 melanoma
# EKVX NSCLC = tested on: EKVX NSCLC
# OVCAR-8 ovarian = tested on: OVCAR-8 ovarian
# HS 578T breast = tested on: HS 578T breast
# SF-539 CNS = tested on: SF-539 CNS
# HCT-116 colon = tested on: HCT-116 colon
# KM12 colon = tested on: KM12 colon
# MCF7 breast = tested on: MCF7 breast
# HCC-2998 colon = tested on: HCC-2998 colon
# ACHN renal = tested on: ACHN renal
# CAKI-1 renal = tested on: CAKI-1 renal
# HL-60(TB) leukemia = tested on: HL-60(TB) leukemia
# K-562 leukemia = tested on: K-562 leukemia
# SW-620 colon = tested on: SW-620 colon
# OVCAR-5 ovarian = tested on: OVCAR-5 ovarian
# RPMI-8226 leukemia = tested on: RPMI-8226 leukemia
# SNB-75 CNS = tested on: SNB-75 CNS
# T-47D breast = tested on: T-47D breast
# SK-OV-3 ovarian = tested on: SK-OV-3 ovarian
# DU-145 prostate = tested on: DU-145 prostate
# 786-0 renal = tested on: 786-0 renal
# HOP-62 NSCLC = tested on: HOP-62 NSCLC
# COLO 205 colon = tested on: COLO 205 colon
# BT-549 breast = tested on: BT-549 breast
# NCI-H460 lung = tested on: NCI-H460 lung
# HT29 colon = tested on: HT29 colon
# UACC-62 melanoma = tested on: UACC-62 melanoma
# M14 melanoma = tested on: M14 melanoma
# MDA-MB-435 = tested on: MDA-MB-435
# SK-MEL-5 melanoma = tested on: SK-MEL-5 melanoma
# MDA-MB-231 breast = tested on: MDA-MB-231 breast
# MALME-3M melanoma = tested on: MALME-3M melanoma
# SK-MEL-2 melanoma = tested on: SK-MEL-2 melanoma
# DMS 273 small cell lung = tested on: DMS 273 small cell lung
# M19-MEL melanoma = tested on: M19-MEL melanoma
# DMS 114 small cell lung = tested on: DMS 114 small cell lung
# HOP-18 NSCLC = tested on: HOP-18 NSCLC
# SNB-78 CNS = tested on: SNB-78 CNS
# LXFL 529 NSCLC = tested on: LXFL 529 NSCLC
# DLD-1 colon = tested on: DLD-1 colon
compound,measurement,setting,value
O=C(O)CP(=O)(O)O,TGI,SN12C renal,> 100 µM
same,TGI,HOP-92 NSCLC,> 100 µM
same,TGI,OVCAR-3 ovarian,> 100 µM
same,TGI,PC-3 prostate,> 100 µM
same,TGI,A549 NSCLC,> 100 µM
same,TGI,IGROV1 ovarian,> 100 µM
same,TGI,SF-268 CNS,> 100 µM
same,TGI,U251 CNS,> 100 µM
same,TGI,MOLT-4 leukemia,> 100 µM
same,TGI,SNB-19 CNS,> 100 µM
same,TGI,LOX IMVI melanoma,> 100 µM
same,TGI,HCT-15 colon,> 100 µM
same,TGI,NCI/ADR-RES ovarian,> 100 µM
same,TGI,RXF 393 renal,> 100 µM
same,TGI,MDA-N,> 100 µM
same,TGI,TK-10 renal,> 100 µM
same,TGI,NCI-H23 lung,> 100 µM
same,TGI,SR leukemia,> 100 µM
same,TGI,OVCAR-4 ovarian,> 100 µM
same,TGI,SF-295 CNS,> 100 µM
same,TGI,UACC-257 melanoma,> 100 µM
same,TGI,A498 renal,> 100 µM
same,TGI,UO-31 renal,> 100 µM
same,TGI,NCI-H522 lung,> 100 µM
same,TGI,NCI-H226 lung,> 100 µM
same,TGI,CCRF-CEM leukemia,> 100 µM
same,TGI,SK-MEL-28 melanoma,> 100 µM
same,TGI,EKVX NSCLC,> 100 µM
same,TGI,OVCAR-8 ovarian,> 100 µM
same,TGI,HS 578T breast,> 100 µM
same,TGI,SF-539 CNS,> 100 µM
same,TGI,HCT-116 colon,> 100 µM
same,TGI,KM12 colon,> 100 µM
same,TGI,MCF7 breast,> 100 µM
same,TGI,HCC-2998 colon,> 100 µM
same,TGI,ACHN renal,> 100 µM
same,TGI,CAKI-1 renal,> 100 µM
same,TGI,HL-60(TB) leukemia,> 100 µM
same,TGI,K-562 leukemia,> 100 µM
same,TGI,SW-620 colon,> 100 µM
same,TGI,OVCAR-5 ovarian,> 100 µM
same,TGI,RPMI-8226 leukemia,> 100 µM
same,TGI,SNB-75 CNS,> 100 µM
same,TGI,T-47D breast,> 100 µM
same,TGI,SK-OV-3 ovarian,> 100 µM
same,TGI,DU-145 prostate,> 100 µM
same,TGI,786-0 renal,> 100 µM
same,TGI,HOP-62 NSCLC,> 100 µM
same,TGI,COLO 205 colon,> 100 µM
same,TGI,BT-549 breast,> 100 µM
same,TGI,NCI-H460 lung,> 100 µM
same,TGI,HT29 colon,> 100 µM
same,TGI,UACC-62 melanoma,> 100 µM
same,TGI,M14 melanoma,> 100 µM
same,TGI,MDA-MB-435,> 100 µM
same,TGI,SK-MEL-5 melanoma,> 100 µM
same,TGI,MDA-MB-231 breast,> 100 µM
same,TGI,MALME-3M melanoma,> 100 µM
same,TGI,SK-MEL-2 melanoma,> 100 µM
C=C(Br)C(C)(Br)CCC(Br)C(C)(C)Br (centres undefined),TGI,SN12C renal,52.4 µM
same,TGI,HOP-92 NSCLC,40.6 µM
same,TGI,A549 NSCLC,> 100 µM
same,TGI,IGROV1 ovarian,39 µM
same,TGI,SF-268 CNS,91 µM
same,TGI,U251 CNS,38.4 µM
same,TGI,MOLT-4 leukemia,94.2 µM
same,TGI,DMS 273 small cell lung,42.9 µM
same,TGI,LOX IMVI melanoma,31 µM
same,TGI,HCT-15 colon,> 100 µM
same,TGI,RXF 393 renal,> 100 µM
same,TGI,TK-10 renal,> 100 µM
same,TGI,NCI-H23 lung,> 100 µM
same,TGI,SR leukemia,54.7 µM
same,TGI,OVCAR-4 ovarian,> 100 µM
same,TGI,M19-MEL melanoma,35.8 µM
same,TGI,SF-295 CNS,62 µM
same,TGI,UACC-257 melanoma,> 100 µM
same,TGI,UO-31 renal,> 100 µM
same,TGI,NCI-H522 lung,28.3 µM
same,TGI,NCI-H226 lung,> 100 µM
same,TGI,CCRF-CEM leukemia,63.5 µM
same,TGI,SK-MEL-28 melanoma,46.3 µM
same,TGI,OVCAR-8 ovarian,33.3 µM
same,TGI,SF-539 CNS,38.8 µM
same,TGI,HCT-116 colon,47.7 µM
same,TGI,KM12 colon,> 100 µM
same,TGI,DMS 114 small cell lung,31.6 µM
same,TGI,ACHN renal,> 100 µM
same,TGI,CAKI-1 renal,> 100 µM
same,TGI,HL-60(TB) leukemia,62.3 µM
same,TGI,K-562 leukemia,> 100 µM
same,TGI,HOP-18 NSCLC,> 100 µM
same,TGI,SW-620 colon,70.9 µM
same,TGI,OVCAR-5 ovarian,> 100 µM
same,TGI,RPMI-8226 leukemia,58.2 µM
same,TGI,SNB-75 CNS,89.2 µM
same,TGI,SNB-78 CNS,70.4 µM
same,TGI,SK-OV-3 ovarian,> 100 µM
same,TGI,786-0 renal,44.5 µM
same,TGI,HOP-62 NSCLC,34.9 µM
same,TGI,COLO 205 colon,35.8 µM
same,TGI,NCI-H460 lung,> 100 µM
same,TGI,HT29 colon,> 100 µM
same,TGI,UACC-62 melanoma,45.1 µM
same,TGI,M14 melanoma,61.3 µM
same,TGI,SK-MEL-5 melanoma,> 100 µM
same,TGI,LXFL 529 NSCLC,45.2 µM
same,TGI,DLD-1 colon,> 100 µM
same,TGI,MALME-3M melanoma,81.8 µM
same,TGI,SK-MEL-2 melanoma,55.7 µM
COc1c(O)c(O)c2c(c1O)C(=O)c1cc(C)cc(O)c1C2=O,TGI,SN12C renal,> 100 µM
same,TGI,HOP-92 NSCLC,> 100 µM
same,TGI,OVCAR-3 ovarian,> 100 µM
same,TGI,PC-3 prostate,> 100 µM
same,TGI,A549 NSCLC,> 100 µM
same,TGI,IGROV1 ovarian,> 100 µM
same,TGI,SF-268 CNS,> 100 µM
same,TGI,U251 CNS,> 100 µM
same,TGI,MOLT-4 leukemia,> 100 µM
same,TGI,SNB-19 CNS,> 100 µM
same,TGI,LOX IMVI melanoma,> 100 µM
same,TGI,HCT-15 colon,> 100 µM
same,TGI,NCI/ADR-RES ovarian,47.3 µM
same,TGI,RXF 393 renal,> 100 µM
same,TGI,MDA-N,> 100 µM
same,TGI,TK-10 renal,> 100 µM
same,TGI,NCI-H23 lung,> 100 µM
same,TGI,SR leukemia,> 100 µM
same,TGI,OVCAR-4 ovarian,> 89.1 µM
same,TGI,SF-295 CNS,> 69.7 µM
same,TGI,UACC-257 melanoma,> 100 µM
same,TGI,A498 renal,> 100 µM
same,TGI,UO-31 renal,> 100 µM
same,TGI,NCI-H522 lung,48.1 µM
same,TGI,NCI-H226 lung,> 93.5 µM
same,TGI,CCRF-CEM leukemia,> 100 µM
same,TGI,SK-MEL-28 melanoma,> 100 µM
same,TGI,EKVX NSCLC,> 100 µM
same,TGI,OVCAR-8 ovarian,> 83.3 µM
same,TGI,HS 578T breast,78.9 µM
same,TGI,SF-539 CNS,> 100 µM
same,TGI,HCT-116 colon,> 100 µM
same,TGI,KM12 colon,> 100 µM
same,TGI,MCF7 breast,> 100 µM
same,TGI,HCC-2998 colon,> 100 µM
same,TGI,ACHN renal,> 100 µM
same,TGI,CAKI-1 renal,> 100 µM
same,TGI,HL-60(TB) leukemia,> 100 µM
same,TGI,K-562 leukemia,98.5 µM
same,TGI,SW-620 colon,> 100 µM
same,TGI,OVCAR-5 ovarian,> 100 µM
same,TGI,RPMI-8226 leukemia,> 100 µM
same,TGI,SNB-75 CNS,> 86.5 µM
same,TGI,T-47D breast,> 100 µM
same,TGI,SK-OV-3 ovarian,> 80 µM
same,TGI,DU-145 prostate,> 100 µM
same,TGI,786-0 renal,> 100 µM
same,TGI,HOP-62 NSCLC,> 100 µM
same,TGI,COLO 205 colon,93.2 µM
same,TGI,BT-549 breast,> 100 µM
same,TGI,NCI-H460 lung,> 78 µM
same,TGI,HT29 colon,> 85.4 µM
same,TGI,UACC-62 melanoma,54.5 µM
same,TGI,M14 melanoma,> 100 µM
same,TGI,MDA-MB-435,> 100 µM
same,TGI,SK-MEL-5 melanoma,> 100 µM
same,TGI,MDA-MB-231 breast,42 µM
same,TGI,MALME-3M melanoma,83.5 µM
same,TGI,SK-MEL-2 melanoma,> 100 µM
